{"source": "patent US20110059475A1", "about": "“STABILISATION OF BLOOD CELL CONJUGATES” (THE UNIVERSITY OF NOTTINGHAM, priority 2008, published 2011)", "key": {"platelets [1]": {"test_system": "platelets", "experiment": "ADP-induced platelet aggregation in blood of volunteers before and after treatment with clopidogrel or clopidogrel plus aspirin", "settings": "ADP 10 μM stimulant tube, citrate blood, percentage of EDTA sample"}, "platelets [2]": {"test_system": "platelets", "experiment": "Whole blood platelet aggregation: flow cytometric single platelet count in fixed and stabilised citrate-anticoagulated blood", "type": "cell-based", "excerpt": "Referring to FIG. 1, there are illustrated dot plots by which the number of single platelets may be quantified. Once the number of single platelets has been determined, it is then possible to calculate the percentage degree of platelet aggregation. Quantification of single platelets in whole blood by flow cytometry required 50,000 red cell events which were collected in region P1 on a forward scatter/side scatter plot, as shown in FIG. 1a. CD42a fluorescence was plotted against forward scatter, and region P2 was selected by drawing a curved line to include all platelet-related events and excluding erythrocyte/platelet co-incidences marked “e/p”, as shown in FIG. 1b. EDTA-anti-coagulated blood, or citrate anti-coagulated blood containing EDTA thus containing unstimulated platelets, was used to set three rectangular gates to quantitate microparticles (P3), single platelets (P4), and microaggregates (P5). These gates were then applied to the dot plots obtained for stimulated samples of blood, recording single platelets in P4. An example of results from an ADP-stimulated, fixed sample in which the single platelet events (P4) reduced from 1716 to 182 (indicating the formation of platelet aggregates) is shown in FIGS. 1d, 1e and 1f.\nFixed and stabilised blood samples were mixed gently by repeated inversion of the sample tubes. 100 μl of the fixed blood was placed in a flow cytometry tube and centrifuged at 380 g for 5 minutes after which 90 μl of the supernatant is removed. The remaining 10 μl of fixed blood was then incubated with 10 μl of a 1 in 10 dilution of CD42a-FITC-labelled antibody for 20 min at 4° C. in the FACS tubes. 1 ml of FACSflow (or any other flow cytometry diluent) was added to the tubes immediately prior to reading on any flow cytometer equipped with a laser operating at an excitation wavelength of 488 nm and with detectors for measurement at suitable wavelengths for the selected fluorochromes (ie FITC). Appropriate software was used to acquire and analyse data on dot plots of forward scatter versus side scatter and forward scatter versus FITC fluorescence acquired with logarithmic amplification. Acquisition was stopped after recording 50,000 erythrocyte events. A sample of fixed unstimulated EDTA-anti-coagulated blood was used to set the vertical lines of three square gates P3, P4 and P5 on a forward scatter versus FITC fluorescence plot. These gates were adjusted to record microparticles in P3, single platelets in P4 and any microaggregates in P5 (see Example 2). The test samples are then analysed using the same gates. Larger aggregates would not be detected by the flow cytometer since they would be too large and cannot pass through the sample tube of the machine.\nThe single platelet count described above is a record of the number of single platelets present in each blood sample (recorded as single platelet events, ie the number of single platelets passing the laser) in relation to 50,000 erythrocyte events recorded, ie erythrocytes passing the laser. It is possible to calculate a true platelet count by using standard flow cytometry counting beads, such as those sold under the trade name Trucount. Aggregation is usually determined as a percentage, and in whole blood this may be recorded as a percentage fall in single platelets. […] It is therefore possible to calculate percentage aggregation directly from the recordings of single platelet events using the following formula:—\nWhere “EDTA count” is the number of platelet events (ie single platelets passing the laser) for a sample containing EDTA which has been fixed in the same way as the test samples, and where “Sample count” is the number of platelet events for the fixed test sample. […]"}, "[3]": {"test_system": "platelet-monocyte conjugates", "experiment": "Platelet-monocyte conjugates by flow cytometry (CD14 with CD42a or CD62P) in fixed and stabilised blood", "type": "cell-based", "settings": "after incubation with collagen", "protocol": "(§1) For example, fixed and stabilised samples are removed from the fridge and mixed well until the sedimented cells are fully re-suspended. 500 μl of each sample is then dispensed into appropriately labelled flow cytometry tubes and centrifuged for 10 min at 380 g. 450 μl of the supernatant is then removed, taking care not to disturb the red blood cell pellet. 10 μl of saturating concentrations of CD14-APCCy7 (used to distinguish monocytes and neutrophils) and CD42a-FITC or CD62P-PE (used to identify platelets bound to either monocytes or neutrophils) is then added to the tubes and incubated with the cells in the dark. After 25 minutes, 1 ml of Erythrolyse solution (AbD Serotec, Oxford, UK) is added to the cells and left to stand for 10 minutes to lyse any red blood cells. 1 ml of FACSflow is added and the cells centrifuged at 380 g. Supernatants are decanted and cells re-suspended in 2 ml of FACSflow to wash the cells. The cells are then centrifuged at 380 g again, the supernatant removed and the cells finally re-suspended in 300 μl of FACSflow to await reading on the flow cytometer.\n(§2) Leukocytes are initially identified by logical gating from dot plots of forward scatter (cell size) and side scatter (cell granularity) profiles acquired with linear amplification. Fluorescence parameters are acquired with logarithmic amplification and 30,000 leukocyte events are collected for each blood sample. […] Lymphocytes may also be identified by CD14 negativity and a low forward scatter/side scatter profile, but platelet-lymphocyte conjugates are formed to a lesser extent and are not routinely quantitated. Platelet-monocyte and platelet-neutrophil conjugates are quantified as the percentage of monocytes or neutrophils expressing platelet CD42a or CD62P fluorescence in an interval gate which may be adjusted using an appropriate IgG control in each case. Median fluorescence values for CD42a or CD62P are also measured for each population of leukocytes tested. […]"}, "[4]": {"test_system": "platelet-neutrophil conjugates", "experiment": "Platelet-neutrophil conjugates by flow cytometry (CD14 with CD42a or CD62P) in fixed and stabilised blood", "type": "cell-based", "settings": "after incubation with collagen", "protocol": "as §1, §2\nReferring to FIG. 10, there are shown dot plots used for the identification of platelet-leukocyte conjugates in fixed and stabilised blood samples following incubation with (a) saline, or (b) collagen. […] Platelet-monocyte and platelet-neutrophil conjugate formation following stimulation with collagen is seen as a shift to the right in plot (iii) as the degree of platelet-specific CD42a fluorescence (ie marker expression) increases.\nReferring to FIG. 12, there is shown the quantification of platelet-neutrophil conjugates (identified from gates P1 and P4 as shown in FIG. 10) which are detected with the platelet-specific markers CD42a or CD62P. […]"}}, "note": "Entries after “also recorded” stand apart in the source; their conditions may differ.", "data": [{"molecule": "COC(=O)[C@H](c1ccccc1Cl)N1CCc2sccc2C1", "note": "[clopidogrel]", "values": [{"measurement": "platelet aggregation after treatment compared with before treatment", "setting": "platelets [1]", "result": "less aggregation; also recorded: inhibited"}]}, {"molecule": "CCCCC[C@H](O)/C=C/[C@@H]1[C@@H](C/C=C\\CCCC(=O)O)[C@H]2CO[C@@H]1C2", "note": "[U46619]", "values": [{"measurement": "degree of aggregation (percentage fall in single platelets)", "setting": "platelets [2]; 1 μM U46619, same donor, citrate-anticoagulated blood", "result": 96, "unit": "%"}]}, {"molecule": "Nc1ncnc2c1ncn2[C@@H]1O[C@H](COP(=O)(O)OP(=O)(O)O)[C@@H](O)[C@H]1O", "note": "[ADP, adenosine diphosphate]", "values": [{"measurement": "aggregation (percentage fall in single platelets)", "setting": "platelets [2]; 1 μM ADP, stirred 4 minutes", "result": 27, "unit": "%"}, {"measurement": "aggregation (percentage fall in single platelets)", "setting": "platelets [2]; 3 μM ADP, stirred 4 minutes", "result": 62, "unit": "%"}, {"measurement": "aggregation (percentage fall in single platelets)", "setting": "platelets [2]; 10 μM ADP, stirred 4 minutes", "result": 89, "unit": "%"}, {"measurement": "single platelet events (P4)", "setting": "platelets [2]; ADP-stimulated fixed sample, per 50,000 red cell events, unstimulated 1716", "result": 182}]}, {"molecule": "CC(=O)Oc1ccccc1C(=O)O", "note": "[aspirin]", "values": [{"measurement": "effect on collagen-induced platelet aggregation", "setting": "platelets [2]; collagen 1, 2, 3, 4 μg/ml for 10 minutes, presence vs absence of aspirin, three donors", "result": "significantly reducing the amount of aggregation"}]}, {"molecule": "Thrombin Receptor Activating Peptide [TRAP]", "values": [{"measurement": "degree of aggregation (percentage fall in single platelets)", "setting": "platelets [2]; 10 μM TRAP, same donor, citrate-anticoagulated blood", "result": 89, "unit": "%"}]}, {"molecule": "Platelet Activating Factor [PAF]", "values": [{"measurement": "degree of aggregation (percentage fall in single platelets)", "setting": "platelets [2]; 3 μM PAF, same donor, citrate-anticoagulated blood", "result": 70, "unit": "%"}]}, {"molecule": "CCCCC/C=C\\C/C=C\\C/C=C\\C/C=C\\CCCC(=O)O", "note": "[AA, arachidonic acid]", "values": [{"measurement": "degree of aggregation (percentage fall in single platelets)", "setting": "platelets [2]; 200 nM arachidonic acid, same donor, citrate-anticoagulated blood", "result": 54, "unit": "%"}]}, {"molecule": "collagen", "values": [{"measurement": "single platelet events in P4 (sample count)", "setting": "platelets [2]; collagen 1 μg/ml, 4 minutes, per 50,000 erythrocyte events, EDTA count 1118", "result": 693}, {"measurement": "degree of aggregation (percentage fall in single platelets compared with EDTA sample)", "setting": "platelets [2]; collagen 1 μg/ml, stirred 4 minutes, citrate-anticoagulated blood", "result": "about 38%"}, {"measurement": "platelet-monocyte conjugates, percentage of parent monocyte population (CD42a, % gated)", "setting": "[3]; saline 8.2", "result": 64.1, "unit": "%"}, {"measurement": "platelet-monocyte conjugates, percentage of parent monocyte population (CD62P, % gated)", "setting": "[3]; saline 9.3", "result": 98.7, "unit": "%"}, {"measurement": "CD42a median fluorescence of monocyte population", "setting": "[3]; saline 259", "result": 832, "unit": "arbitrary units"}, {"measurement": "platelet-neutrophil conjugates, percentage of parent neutrophil population (CD62P, % gated)", "setting": "[4]; saline 7.3", "result": 72.1, "unit": "%"}, {"measurement": "platelet-neutrophil conjugates, percentage of parent neutrophil population (CD42a, % gated)", "setting": "[4]; saline 7.9", "result": 21.9, "unit": "%"}, {"measurement": "CD62P median fluorescence of neutrophil population", "setting": "[4]; saline 141", "result": 688}, {"measurement": "CD42a median fluorescence of neutrophil population", "setting": "[4]; saline 142", "result": 201}]}]}
